# Laboratory results reported in publication PMC7617869, “Molecular glues that inhibit deubiquitylase activity and inflammatory signaling” (Nature Structural & Molecular Biology, 2025).
# “And” between values parts separate entries of the source, which are not always exact repeats. Equal values may be shown once.
# Key:
# [1] = system: NF-κB pathway in THP-1 cells; assay: THP-1 NF-κB pathway SEAP reporter, lipopolysaccharide stimulation; assay type: cell-based, human; conditions: LPS + compound, three replicates
# Method: (§1) THP-1 in vitro experiments
# (§2) THP-1-DualTM cells (InvivoGen), derived from a human monocytic cell line, isolated from a patient with acute monocytic leukaemia, were cultured as per manufacturer’s guidance. Cells were seeded at 1x10^6 cells/mL in RPMI1640 media containing 10% fetal bovine serum (FBS), 1% penicillin-streptomycin (PS) (Gibco Laboratories) with DMSO (0.1%) (control) or in media containing JMS-175- […]
# (§3) ng/mL) (Merck Life Science), ODN 2216 (1 µM) (Miltenyi Biotec), or Poly:IC (1 µg/mL) (InvivoGen).
# (§4) Tofacitinib (Cambridge Biosciences) at 0.4 µM was used for comparison against a known JAK inhibitor.
# (§5) Cells were centrifuged at 300 g for 5 minutes. Supernatant was removed and subjected to simultaneous study of the NF -κB pathway, by monitoring the activity of secreted alkaline phosphatase reporter (SEAP), and the IRF pathway, by assessing the activity o f a secreted Lucia luciferase using QUANTI - Blue ™ Solution and QUANTI -Luc™ 4 Lucia/Gaussia (InvivoGen), respectively, as per manufacturer’s instructions. Pelleted cells were used for FACS analysis using IFNα/β R1 APC-conjugated antibody or isotype control (Biotechne, FAB245A and IC002A), or unstained staining procedure with and without Zombie GreenTM (Biolegend). Samples were analysed using CytoFlex LX (Beckman) (50,000 live cells per condition). Median fluorescence intensity for APC channel gated on single cell live cells was analysed and compared as a percentage to control (no stimulation condition). […]
# BRISC = molecular target: T1, BRISC (Homo sapiens, UniProt P46736+Q15018+Q9NXR7); assay: BRISC DUB activity assay (IQF K63-linked diubiquitin); assay type: biochemical; conditions: for Normalised V0: replicate columns
# T1 construct: made in house; host or cells: Spodoptera frugiperda (Sf9) insect cells, MultiBac
# Method: IQF assays were performed in DUB reaction buffer containing 50 mM HEPES–NaOH pH 7.0, 100 mM NaCl, 0.1 mg ml^−1 BSA, 1 mM DTT and 0.03% v/v Brij-35. […] The final concentration of BRISC WT, all BRISC mutants, HsBRISCΔLoop, MmBRISC and DrBRISCΔNΔC was 1 nM. Other enzymes were tested at the following concentrations: 5 nM ARISC (FL), 10 nM CfBRISCΔNΔC, 250 nM AMSH* (ref. [43]), 500 nM USP2 and 1 μM trypsin (Sigma, 9002-07-7). For Michaelis–Menten experiments, 1 nM BRISC with 0–1 μM IQF K63-linked diubiquitin substrate was used. Michaelis–Menten analyses and Lineweaver–Burk plots were calculated using GraphPad Prism (version 9.0).
# To assess enzymatic activity, BRISC complexes were diluted to concentrations between 1 nM and 50 nM. […] Then, 20-μl enzyme reactions were carried out in 384-well black flat-bottom low-flange plates (Corning, 35373). DUB activity was measured using IQF K63-linked diubiquitin (LifeSensors, DU6303) at 50 nM. Cleaved diubiquitin was monitored by measuring fluorescence intensity (excitation, 544 nm; emission, 575 nm; dichroic mirror, 560 nm). Fluorescence intensity was measured every minute for 30 min at 30 °C. Fluorescence intensity units were plotted against time to generate a linear reaction progress curve, where the initial velocity (V0) corresponds to the gradient of the curve (typically achieved within 15 min). IC50 values were calculated using the GraphPad Prism (version 9.0) built-in dose–response equation for inhibitor concentration versus response (variable slope).
# THP-1 cells = assay: THP-1 live cell percentage; assay type: cell-based; conditions: THP-1, hIFNα2 25 ng/mL, 4 μM compound, 16 h
# Method: as §1, §2, §3, §4, §5
# [2] = system: CXCL10 secretion in healthy PBMCs; assay: Healthy PBMC CXCL10 ELISA, IFNα2-stimulated; assay type: cell-based, human
# Method: PBMCs in vitro experiments
# Peripheral blood mononuclear cells (PBMCs) from healthy and SSc donors were separated using density gradient method (Leucosep™, Greiner Bio-One International) from EDTA anticoagulated peripheral blood; isolated cells were washed twice by PBS. PBMCs were then incubated in RPMI1640 […]
# For healthy PBMCs, cells were stimulated with 20 ng/mL of IFN (+/- compounds or DMSO). For SSc PBMCs, cells were in basal conditions with no additional IFN stimulation. Cells were centrifuged at 300 g for 10 minutes. Supernatant was removed and subjected to R&D Systems DY266 Human CXCL10/IP-10 DuoSet ELISA (Biotechne) in duplicates, according to manufacturer’s guidance. Concentration of CXCL10 was determined according to a 4-parameter
# [3] = system: IFNAR1 surface levels in THP-1 cells; assay: THP-1 IFNAR1 surface levels (FACS); assay type: cell-based, human
# Method: as §1, §2, §3, §4, §5
smiles,measurement,setting,value
Cn1cc(NC(=O)c2c(Cl)cccc2Cl)c(C(=O)NC2CCN(C(=O)c3c(Cl)cccc3Cl)CC2)n1 [AP-5-145],NF-κB SEAP reporter signal,[1],1.142 and 1.08 and 1.107
same,inhibition of BRISC DUB activity (in words),BRISC; IQF diubiquitin assay,no inhibitory effect
same,Normalised V0,BRISC; [Inhibitor] 0.013 μM,0.9159 and 1.143 and 0.9058 and 0.9388
same,Normalised V0,BRISC; [Inhibitor] 0.02 μM,0.9923 and 1.0109
same,Normalised V0,BRISC; [Inhibitor] 0.0399999 μM,0.8997 and 0.9429
same,Normalised V0,BRISC; [Inhibitor] 0.0599997 μM,0.9873 and 1.113
same,Normalised V0,BRISC; [Inhibitor] 0.0799994 μM,0.9492 and 1.054
same,Normalised V0,BRISC; [Inhibitor] 0.119998 μM,0.9627 and 1.064
same,Normalised V0,BRISC; [Inhibitor] 0.199996 μM,0.9243 and 0.9333
same,Normalised V0,BRISC; [Inhibitor] 0.499975 μM,0.9206 and 1.055
same,Normalised V0,BRISC; [Inhibitor] 0.799936 μM,0.5226 and 1.107
same,Normalised V0,BRISC; [Inhibitor] 1.25984 μM,0.877 and 1.051
same,Normalised V0,BRISC; [Inhibitor] 1.9996 μM,0.8804 and 1.0497
same,Normalised V0,BRISC; [Inhibitor] 3.159 μM,0.8796 and 0.9314
same,Normalised V0,BRISC; [Inhibitor] 5.19739 μM,1.075 and 0.9343
same,Normalised V0,BRISC; [Inhibitor] 7.99364 μM,0.9828 and 1.083
same,Normalised V0,BRISC; [Inhibitor] 12.7839 μM,1.017 and 1.039
same,Normalised V0,BRISC; [Inhibitor] 19.96 μM,1.018 and 0.9724
same,Normalised V0,BRISC; [Inhibitor] 31.4999 μM,0.9031 and 1.019
same,Normalised V0,BRISC; [Inhibitor] 50.147 μM,0.9135 and 0.9224
same,Normalised V0,BRISC; [Inhibitor] 79.7601 μM,0.8955 and 0.9782
same,Normalised V0,BRISC; [Inhibitor] 125.99 μM,0.8989 and 0.9064
same,Normalised V0,BRISC; [Inhibitor] 199.922 μM,0.8256 and 0.9679
same,percentage of live cells,THP-1 cells,98.52%
same,"CXCL10, healthy donor PBMCs (Fig. 6c)",[2]; Healthy donor HC1,89.7308
same,"CXCL10, healthy donor PBMCs (Fig. 6c)",[2]; Healthy donor HC2,123.351
same,"CXCL10, healthy donor PBMCs (Fig. 6c)",[2]; Healthy donor HC3,106.128
same,IFNAR1 surface levels (Fig. 5h),"[3]; IFN + compound, No IFN = 100",65.8984 and 82.4668 and 66.4812
same,IFNAR1 surface levels,"[3]; THP-1, hIFNα2 25 ng/ml, 4 μM, 16 h",no significant reduction
